According to patent US8828988B2 (Tetraphase Pharmaceuticals, Inc., priority 2009, dated 2014):
In brackets after ≈: the same amount, converted by molar mass. Where two headings read alike, the source gives them in different places.

What was measured:
[1] = system: Klebsiella pneumoniae KP153, tetracycline-resistant, tet(A), MDR, ESBL+; assay: MIC assay, KP153; assay type: cell-based; details: Table 9, read-out: MIC Klebsiella pneum KP153 (tet)A
[2] = system: Streptococcus pneumoniae SP106, ATCC 49619; assay: MIC assay, SP106; assay type: cell-based
[3] = system: Pseudomonas aeruginosa PA111, ATCC 27853; assay: MIC assay, PA111; assay type: cell-based; details: ATCC27853, Table 9, read-out: MIC P. aeruginosa ATCC 27853
[4] = system: S. pneumoniae isolates (Eurofins-Medinet, recent clinical isolates); assay: MIC50 and MIC90 analysis (Example 22)
Description: (§5) Frozen bacterial strains were thawed and subcultured onto Mueller Hinton Broth (MHB) or other appropriate media (Streptococcus requires blood and Haemophilus requires hemin and NAD). Following incubation overnight, the strains were subcultured onto Mueller Hinton Agar and again incubated overnight. […] Isolated colonies were selected to prepare a starting inoculum equivalent to a 0.5 McFarland standard. […] Antibiotics (stored frozen, thawed and used within 3 hours of thawing) and compounds were further diluted to the desired working concentrations.
(§6) The assays were run as follows. Fifty μL of MHB was added to wells 2-12 of a 96-well plate. One hundred μL of appropriately diluted antibiotic or compound was added to well 1. Fifty μL of antibiotics or compound was removed from well 1 and added to well 2 and the contents of well 2 mixed by pipetting up and down five times. Fifty μL of the mixture in well 2 was removed and added to well 3 and mixed as above. Serial dilutions were continued in the same manner through well 12. Fifty μL was removed from well 12 so that all contained 50 μL. Fifty μL of the working inoculum was then added to all test wells. A growth control well was prepared by adding 50 μL of working inoculum and 50 μL of MHB to an empty well. The plates were then incubated at 37° C. overnight, removed from the incubator and each well was read on a plate reading mirror. The lowest concentration (MIC) of test compound that inhibited the growth of the bacteria was recorded.
(§7) MIC, MIC50 and MIC90 values were determined according to CLSI methodology. S. pneumoniae and H. influenzae isolates were obtained from Eurofins-Medinet and are recent clinical isolates. S. aureus strains were collected from various geographical sources.

[5] = system: E. coli S30 extract system, coupled in vitro transcription/translation, firefly luciferase readout; assay: In vitro transcription/translation (TnT) assay; assay type: biochemical; details: for IC50, in vitro transcription/translation system: E. coli S30 extract, luciferase readout
[6] = system: Staphylococcus aureus SA161, HA-MRSA, tetracycline-resistant, tet(M); assay: MIC assay, SA161; assay type: cell-based
[7] = system: Enterococcus faecalis EF159, tetracycline-resistant, tet(M); assay: MIC assay, EF159; assay type: cell-based
[8] = system: Escherichia coli EC107, ATCC 25922; assay: MIC assay, EC107; assay type: cell-based
[9] = in vivo; details: Sprague-Dawley, rat
[10] = system: Enterobacter cloacae EC108, ATCC 13047; assay: MIC assay, EC108; assay type: cell-based; details: ATCC13047, Table 9, read-out: MIC Enterobacter cloaceae ATCC 13047
[11] = system: Staphylococcus aureus SA101, ATCC 29213, MSSA; assay: MIC assay, SA101; assay type: cell-based
[12] = system: S. aureus ATCC 13709 (Smith); assay: Mouse systemic infection model, S. aureus septicemia; details: survival after 48 hours
[13] = system: Escherichia coli EC155, tetracycline-resistant, tet(A); assay: MIC assay, EC155; assay type: cell-based
[14] = system: Acinetobacter baumannii AB110, ATCC 19606; assay: MIC assay, AB110; assay type: cell-based; details: ATCC19606, Table 9, read-out: MIC A.baum AB110
[15] = system: Staphylococcus aureus SA100, ATCC 13709, MSSA, Smith strain; assay: MIC assay, SA100; assay type: cell-based
[16] = system: S. aureus strains collected from various geographical sources; assay: MIC50 and MIC90 analysis (Example 22)
Description: as §5, §6, §7

[17] = system: Klebsiella pneumoniae KP109, ATCC 13883; assay: MIC assay, KP109; assay type: cell-based; details: ATCC13883, Table 9, read-out: MIC Klebsiella pneum ATCC 13883
[18] = system: H. influenzae isolates (Eurofins-Medinet, recent clinical isolates); assay: MIC50 and MIC90 analysis (Example 22)
Description: as §5, §6, §7

[19] = system: E. coli ATCC 25922; assay: Mouse systemic infection model, E. coli septicemia; details: survival after 48 hours
[20] = system: Streptococcus pneumoniae SP160, tetracycline-resistant, tet(M); assay: MIC assay, SP160; assay type: cell-based
[21] = system: Staphylococcus aureus SA158, tetracycline-resistant tet(K); assay: MIC assay, SA158; assay type: cell-based
[22] = Pharmacokinetic analysis in Sprague-Dawley rats
[23] = system: Enterococcus faecalis EF103, ATCC 29212; assay: MIC assay, EF103; assay type: cell-based; details: for MIC: Enterococcus faecalis, ATCC29212, Table 8, read-out: MIC E. faecalis ATCC 29212
[24] = system: tet(M) and tet(S) strains of E. faecalis; assay: MIC, CLSI methodology, recent clinical isolates (Example 21); assay type: cell-based; details: Enterococcus faecalis, read-out: MIC against tet(M) and tet(S) strains of E. faecalis
Description: (§1) The assays were run as follows.
(§2) The antibacterial activities of Compounds MIC values were determined according to CLSI methodology. Recent clinical isolates were obtained from Eurofins-Medinet. Antibiotics were obtained from standard commercial sources.

[25] = system: tet(K) strains of S. aureus; assay: as above; assay type: cell-based; details: Staphylococcus aureus, read-out: MIC against tet(K) strains of S. aureus
Description: as §1, §2

[26] = system: tet(M) strains of S. aureus; assay: as above; assay type: cell-based; details: Staphylococcus aureus, read-out: MIC against tet(M) strains of S. aureus
Description: as §1, §2

[27] = system: tet(M) strains of S. pneumoniae; assay: as above; assay type: cell-based; details: Streptococcus pneumoniae, read-out: MIC against tet(M) strains of S. pneumoniae
Description: as §1, §2

[28] = system: E. coli DH10B(pBAD-tetK), expressing tet(K); assay: MIC against recombinant E. coli expressing tet(K); assay type: cell-based; details: for MIC: Escherichia coli
Text: (§3) Constructs were transformed into E. coli DH10B for expression. Recombinant strains were pre-induced under optimized conditions with L-arabinose prior to use as inocula in CLSI standardized MIC assays.

[29] = system: E. coli DH10B(pBAD-tetM), expressing tet(M); assay: MIC against recombinant E. coli expressing tet(M); assay type: cell-based; details: for MIC: Escherichia coli
Text: as §3

[30] = system: S. pneumoniae clinical isolates; assay: MIC50, MIC90 and MIC range, panel of clinical isolates (Example 20); assay type: cell-based; details: 19 isolates, in µg/mL
Description: as §1
(§4) Both values, as well as the MIC range (the lowest and highest MIC value observed for a collection of organisms), were determined for the isolates listed in Table 3.

[31] = system: S. aureus clinical isolates; assay: as above; assay type: cell-based; details: MRSA, 30 isolates; in µg/mL
Description: as §1, §4

[32] = system: E. faecalis clinical isolates; assay: as above; assay type: cell-based; details: 24 isolates, in µg/mL
Description: as §1, §4

[33] = ATCC49619, Table 8, read-out: MIC S. pneumoniae ATCC 49619
[34] = Table 8, read-out: MIC S. aureus MRSA, tetM
[35] = Table 8, read-out: MIC E. faecalis tetM
[36] = ATCC25922, Table 8, read-out: MIC E. coli ATCC 25922
[37] = Table 8, read-out: MIC S. aureus ATCC 29213
[38] = Table 8, read-out: MIC E. coli tetA
[39] = Table 8, read-out: MIC S. pneumoniae tetM
[40] = Table 8, read-out: MIC S. aureus tetK
[41] = after IV dosing, single dose 1 mg/kg

CN(C)c1ncc(O)c2c1C[C@H]1C[C@H]3[C@H](N(C)C)C(O)=C(C(N)=O)C(=O)[C@@]3(O)C(O)=C1C2=O [Compound 109]
MIC [1]: > 32 µg/mL | MIC [2, 33]: 0.031 µg/mL (≈ 0.0676 µM) | MIC ([2]; ATCC49619, Table 9, read-out: MIC S. pneum ATCC 49619): 0.03 µg/mL (≈ 0.0654 µM) | MIC [3]: 8 µg/mL (≈ 17.4 µM) | MIC Range ([4]; S. pneumoniae (n = 20)): ≦0.016-8 μg/ml | MIC50 ([4]; Streptococcus pneumoniae): 2 µg/mL (≈ 4.36 µM) | MIC90 ([4]; Streptococcus pneumoniae): 4 µg/mL (≈ 8.72 µM) | TnT IC50 [5]: 0.76 µg/mL | IC50, in vitro transcription/translation system [5]: sub-μg/ml | E. coli TnT ([5]; Table 8): 0.9 µg/mL | MIC [6, 34]: 16 µg/mL (≈ 34.9 µM) | MIC ([6]; Table 9, read-out: MIC MRSA (tet)M SA161): 32 µg/mL (≈ 69.8 µM) | MIC [7, 35]: 32 µg/mL (≈ 69.8 µM) | MIC ([7]; Table 9, read-out: MIC E. faecalis EF159 (tet)M): 32 µg/mL (≈ 69.8 µM) | MIC [8, 36]: 0.13 µg/mL (≈ 0.284 µM) | MIC ([8]; ATCC25922, Table 9, read-out: MIC E. coli ATCC 25922): 0.13 µg/mL (≈ 0.284 µM) | MIC ([8]; ATCC25922, Table 12, read-out: MIC E. coli ATCC 25922): 0.13 µg/mL (≈ 0.284 µM) | AUC(0-t) ([9]; iv, 1 mg/kg): 1090 ng·h/mL | Cmax ([9]; iv, 1 mg/kg): 603 ng/mL | Tmax ([9]; iv, 1 mg/kg): 4.8 min | half-life ([9]; iv, 1 mg/kg): 180 min | bioavailability ([9]; oral, 10 mg/kg): 13% | AUC(0-t) ([9]; po, 10 mg/kg): 1250 ng·h/mL | Cmax ([9]; po, 10 mg/kg): 192 ng/mL | Tmax ([9]; po, 10 mg/kg): 84 min | half-life ([9]; po, 10 mg/kg): 271 min | MIC [10]: 1 µg/mL (≈ 2.18 µM) | MIC [11, 37]: 0.031 µg/mL (≈ 0.0676 µM) | MIC ([11]; Table 9, read-out: MIC S. aureus ATCC 29213): 0.03 µg/mL (≈ 0.0654 µM) | PD50 in the mouse septicemia model against S. aureus ([12]; CD-1 mice, IP infection, intravenous treatment one hour post-challenge): < 0.3 mg/kg | PD50 ([12]; mouse septicemia, S. aureus ATCC 13709, intravenous treatment one hour post-challenge): <0.30 mg/kg | MIC [13, 38]: > 32 µg/mL | MIC ([13]; Table 9, read-out: MIC E. coli EC155 (tet)A): > 32 µg/mL | MIC [14]: 0.5 µg/mL (≈ 1.09 µM) | MIC ([15]; Table 9, read-out: MIC S. aureus ATCC 13709): 0.13 µg/mL (≈ 0.284 µM) | MIC ([15]; Table 12, read-out: MIC S. aureus ATCC 13709): 0.25 µg/mL (≈ 0.545 µM) | MIC Range ([16]; S. aureus (n = 20)): ≦0.016-1 μg/ml | MIC50 ([16]; Staphylococcus aureus): ≤ 0.016 µg/mL | MIC90 ([16]; Staphylococcus aureus): ≤ 0.016 µg/mL | MIC [17]: 0.5 µg/mL (≈ 1.09 µM) | MIC Range ([18]; H. influenzae (n = 12)): 0.063 to 4 µg/mL | MIC50 ([18]; Haemophilus influenzae): 0.5 µg/mL (≈ 1.09 µM) | MIC90 ([18]; Haemophilus influenzae): 2 µg/mL (≈ 4.36 µM) | PD50 in the mouse septicemia model against E. coli ([19]; CD-1 mice, IP infection, treatment one hour post-challenge): 4.3 mg/kg | PD50 ([19]; mouse septicemia, E. coli ATCC 25922, treatment one hour post-challenge): 4.3 mg/kg | MIC [20, 39]: 8 µg/mL (≈ 17.4 µM) | MIC ([20]; Table 9, read-out: MIC S. pneum SP160 (tet)M): 8 µg/mL (≈ 17.4 µM) | MIC [21, 40]: 2 µg/mL (≈ 4.36 µM) | MIC ([21]; Table 9, read-out: MIC S. aureus SA158 (tet)K): 1 µg/mL (≈ 2.18 µM) | Clobs ([22]; IV, single dose 1 mg/kg, mean): 918.65 mL/h/kg | Vzobs ([22]; IV, single dose 1 mg/kg, mean): 4176.97 mL/kg | half-life ([22]; IV, single dose 1 mg/kg, mean): 3.14 h | AUC [22, 41]: 1087 ng·h/mL | Cl [22, 41]: 919 mL/h/kg | Vz [22, 41]: 4177 mL/kg | % F. ([22]; oral bioavailability, PO 10 mg/kg vs IV 1 mg/kg): 12.74% | MIC [23]: 1 µg/mL (≈ 2.18 µM) | MIC E. faecalis ATCC 29212 ([23]; Table 9): 1 µg/mL (≈ 2.18 µM)

CN(C)[C@@H]1C(O)=C(C(N)=O)C(=O)[C@@]2(O)C(O)=C3C(=O)c4c(O)c(NCC(C)(C)CN5CCCC5)nc(Cl)c4C[C@H]3C[C@@H]12 [Compound 108]
MIC [2, 33]: 0.031 µg/mL (≈ 0.0513 µM) | MIC [24]: ≤ 4 µg/mL | MIC [25]: ≤ 1 µg/mL | MIC [26]: ≤ 8 µg/mL | MIC [27]: ≤ 0.25 µg/mL | MIC ([28]; read-out: MIC, TetK Induced): 2 µg/mL | MIC ([28]; read-out: MIC, Uninduced): 4 µg/mL | MIC ratio, TetK induced to uninduced ([28]; ratio of TetK induced to uninduced MIC): 0.5 | Effect of expression of (tet)K on activity ([28]; result in words): unaffected | TnT IC50 [5]: 0.6 µg/mL | IC50, in vitro transcription/translation system [5]: 0.62 µg/mL (≈ 1.03 µM) | MIC [6, 34]: 2 µg/mL (≈ 3.31 µM) | MIC [7, 35]: 2 µg/mL (≈ 3.31 µM) | MIC [8, 36]: 2 µg/mL (≈ 3.31 µM) | MIC [11, 37]: 0.25 µg/mL (≈ 0.414 µM) | MIC [13, 38]: 8 µg/mL (≈ 13.2 µM) | MIC ([29]; read-out: MIC, TetM induced): 2 µg/mL | MIC ([29]; read-out: MIC, Uninduced): 2 µg/mL | Ratio (TetM induced / Uninduced) ([29]; ratio of MICs): 1 | Effect of expression of (tet)M on activity ([29]; result in words): minimally affected | MIC Range [30]: <=0.016-0.13 | MIC Range [31]: 0.5-8 | MIC Range [32]: 0.063-4 | MIC [20, 39]: 0.25 µg/mL (≈ 0.414 µM) | MIC [21, 40]: 0.13 µg/mL (≈ 0.215 µM) | MIC [23]: 0.5 µg/mL (≈ 0.828 µM)
